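Five concentrations, 48 hours, 96-well plates. At the GI50, growth is halved. Definition used: TGI = concentration required for complete inhibition of growth.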
What was measured:
Experiment in all cases: NCI tumour cell line growth inhibition, 48 h
786-0 renal = test system: 786-0 renal
A498 renal = test system: A498 renal
A549 NSCLC = test system: A549 NSCLC
ACHN renal = test system: ACHN renal
BT-549 breast = test system: BT-549 breast
CAKI-1 renal = test system: CAKI-1 renal
CCRF-CEM leukemia = test system: CCRF-CEM leukemia
COLO 205 colon = test system: COLO 205 colon
DU-145 prostate = test system: DU-145 prostate
EKVX NSCLC = test system: EKVX NSCLC
HCC-2998 colon = test system: HCC-2998 colon
HCT-116 colon = test system: HCT-116 colon
HCT-15 colon = test system: HCT-15 colon
HL-60(TB) leukemia = test system: HL-60(TB) leukemia
HOP-62 NSCLC = test system: HOP-62 NSCLC
HOP-92 NSCLC = test system: HOP-92 NSCLC
HS 578T breast = test system: HS 578T breast
HT29 colon = test system: HT29 colon
IGROV1 ovarian = test system: IGROV1 ovarian
K-562 leukemia = test system: K-562 leukemia
KM12 colon = test system: KM12 colon
LOX IMVI melanoma = test system: LOX IMVI melanoma
M14 melanoma = test system: M14 melanoma
MALME-3M melanoma = test system: MALME-3M melanoma
MCF7 breast = test system: MCF7 breast
MDA-MB-231 breast = test system: MDA-MB-231 breast
MDA-MB-435 = test system: MDA-MB-435
MOLT-4 leukemia = test system: MOLT-4 leukemia
NCI-H226 lung = test system: NCI-H226 lung
NCI-H23 lung = test system: NCI-H23 lung
NCI-H460 lung = test system: NCI-H460 lung
NCI-H522 lung = test system: NCI-H522 lung
NCI/ADR-RES ovarian = test system: NCI/ADR-RES ovarian
OVCAR-3 ovarian = test system: OVCAR-3 ovarian
OVCAR-4 ovarian = test system: OVCAR-4 ovarian
OVCAR-5 ovarian = test system: OVCAR-5 ovarian
OVCAR-8 ovarian = test system: OVCAR-8 ovarian
PC-3 prostate = test system: PC-3 prostate
RPMI-8226 leukemia = test system: RPMI-8226 leukemia
RXF 393 renal = test system: RXF 393 renal
SF-268 CNS = test system: SF-268 CNS
SF-295 CNS = test system: SF-295 CNS
SF-539 CNS = test system: SF-539 CNS
SK-MEL-2 melanoma = test system: SK-MEL-2 melanoma
SK-MEL-28 melanoma = test system: SK-MEL-28 melanoma
SK-MEL-5 melanoma = test system: SK-MEL-5 melanoma
SK-OV-3 ovarian = test system: SK-OV-3 ovarian
SN12C renal = test system: SN12C renal
SNB-19 CNS = test system: SNB-19 CNS
SNB-75 CNS = test system: SNB-75 CNS
SR leukemia = test system: SR leukemia
SW-620 colon = test system: SW-620 colon
T-47D breast = test system: T-47D breast
TK-10 renal = test system: TK-10 renal
U251 CNS = test system: U251 CNS
UACC-257 melanoma = test system: UACC-257 melanoma
UACC-62 melanoma = test system: UACC-62 melanoma
UO-31 renal = test system: UO-31 renal

## COC(=O)[C@]12CC[C@@H](C)[C@H](C)[C@@H]1C1=CC[C@@H]3[C@@]4(C)C=C(O)C(=O)C(C)=C4CC[C@@]3(C)[C@]1(C)CC2
786-0 renal
  GI50: 16.4 µM
  TGI: 32.6 µM
A498 renal
  GI50: 19.5 µM
  TGI: 34.1 µM
A549 NSCLC
  GI50: 15.1 µM
  TGI: 31.2 µM
ACHN renal
  GI50: 5.4 µM
  TGI: 19.3 µM
BT-549 breast
  GI50: 15.5 µM
  TGI: 37.4 µM
CAKI-1 renal
  GI50: 12.4 µM
  TGI: 31.4 µM
CCRF-CEM leukemia
  GI50: 5.26 µM
  TGI: 23.4 µM
COLO 205 colon
  GI50: 12.5 µM
  TGI: 30.1 µM
DU-145 prostate
  GI50: 15.2 µM
  TGI: 33.3 µM
EKVX NSCLC
  GI50: 4.96 µM
  TGI: 19.5 µM
HCC-2998 colon
  GI50: 8.6 µM
  TGI: 23.3 µM
HCT-116 colon
  GI50: 6.03 µM
  TGI: 20.6 µM
HCT-15 colon
  GI50: 11.9 µM
  TGI: 27.6 µM
HL-60(TB) leukemia
  GI50: 13.7 µM
  TGI: 35.7 µM
HOP-62 NSCLC
  GI50: 18 µM
  TGI: 35.9 µM
HOP-92 NSCLC
  GI50: 11.6 µM
  TGI: 26.2 µM
HS 578T breast
  GI50: 22.2 µM
  TGI: 57.1 µM
HT29 colon
  GI50: 9.35 µM
  TGI: 23 µM
IGROV1 ovarian
  GI50: 13.4 µM
  TGI: 36.5 µM
K-562 leukemia
  GI50: 14.3 µM
  TGI: 39.2 µM
KM12 colon
  GI50: 7.72 µM
  TGI: 21.8 µM
LOX IMVI melanoma
  GI50: 13 µM
  TGI: 27.4 µM
M14 melanoma
  GI50: 11 µM
  TGI: 29 µM
MALME-3M melanoma
  GI50: 22.4 µM
  TGI: 42.8 µM
MCF7 breast
  GI50: 10.8 µM
  TGI: 26.9 µM
MDA-MB-231 breast
  GI50: 13 µM
  TGI: 30.2 µM
MDA-MB-435
  GI50: 13.8 µM
  TGI: 28.2 µM
MOLT-4 leukemia
  GI50: 4.71 µM
  TGI: 20.7 µM
NCI-H226 lung
  GI50: 12.3 µM
  TGI: 41 µM
NCI-H23 lung
  GI50: 11 µM
  TGI: 27.8 µM
NCI-H460 lung
  GI50: 18.9 µM
  TGI: 37.3 µM
NCI-H522 lung
  GI50: 3.92 µM
  TGI: 14.7 µM
NCI/ADR-RES ovarian
  GI50: 12.7 µM
  TGI: 31.7 µM
OVCAR-3 ovarian
  GI50: 11.6 µM
  TGI: 24.5 µM
OVCAR-4 ovarian
  GI50: 11.9 µM
  TGI: 26.3 µM
OVCAR-5 ovarian
  GI50: 17.8 µM
  TGI: 38.6 µM
OVCAR-8 ovarian
  GI50: 16.9 µM
  TGI: 39.4 µM
PC-3 prostate
  GI50: 4.16 µM
  TGI: 18.4 µM
RPMI-8226 leukemia
  GI50: 8.62 µM
  TGI: 32.8 µM
RXF 393 renal
  GI50: 12.1 µM
  TGI: 27.9 µM
SF-268 CNS
  GI50: 15.2 µM
  TGI: 35.1 µM
SF-295 CNS
  GI50: 15.8 µM
  TGI: 37.9 µM
SF-539 CNS
  GI50: 12.2 µM
  TGI: 27.2 µM
SK-MEL-2 melanoma
  GI50: 14.6 µM
  TGI: 31.6 µM
SK-MEL-28 melanoma
  GI50: 15.8 µM
  TGI: 34 µM
SK-MEL-5 melanoma
  GI50: 15.4 µM
  TGI: 28.8 µM
SK-OV-3 ovarian
  GI50: 15.6 µM
  TGI: 38.4 µM
SN12C renal
  GI50: 19.2 µM
  TGI: 50.4 µM
SNB-19 CNS
  GI50: 18.7 µM
  TGI: 40.9 µM
SNB-75 CNS
  GI50: 13.9 µM
  TGI: 31.3 µM
SR leukemia
  GI50: 5.29 µM
  TGI: 28.2 µM
SW-620 colon
  GI50: 17.3 µM
  TGI: 35.7 µM
T-47D breast
  GI50: 5.86 µM
  TGI: 30.8 µM
TK-10 renal
  GI50: 18.2 µM
  TGI: 35.8 µM
U251 CNS
  GI50: 16.9 µM
  TGI: 33.6 µM
UACC-257 melanoma
  GI50: 20 µM
  TGI: 42.2 µM
UACC-62 melanoma
  GI50: 14.5 µM
  TGI: 31.3 µM
UO-31 renal
  GI50: 11.6 µM
  TGI: 26.3 µM

## CCCCc1nc2cc(/C=C/C(=O)NO)ccc2n1CCN(CC)CC
786-0 renal
  GI50: 0.46 µM
  TGI: 11.5 µM
A498 renal
  GI50: 0.194 µM
  TGI: 0.658 µM
A549 NSCLC
  GI50: 0.318 µM
  TGI: 2.4 µM
ACHN renal
  GI50: 0.285 µM
  TGI: 1.44 µM
BT-549 breast
  GI50: 1.98 µM
  TGI: 38.2 µM
CAKI-1 renal
  GI50: 0.237 µM
  TGI: 0.943 µM
CCRF-CEM leukemia
  GI50: 0.317 µM
  TGI: > 100 µM
COLO 205 colon
  GI50: 0.138 µM
  TGI: 0.298 µM
DU-145 prostate
  GI50: 0.302 µM
  TGI: 4.64 µM
EKVX NSCLC
  GI50: 0.387 µM
  TGI: > 100 µM
HCC-2998 colon
  GI50: 0.242 µM
  TGI: 1.23 µM
HCT-116 colon
  GI50: 0.115 µM
  TGI: 0.571 µM
HCT-15 colon
  GI50: 1.47 µM
  TGI: 22.4 µM
HL-60(TB) leukemia
  GI50: 0.441 µM
  TGI: > 100 µM
HOP-62 NSCLC
  GI50: 0.322 µM
  TGI: 11.6 µM
HOP-92 NSCLC
  GI50: 0.0821 µM
  TGI: 0.456 µM
HS 578T breast
  GI50: 0.515 µM
  TGI: 33 µM
HT29 colon
  GI50: 0.198 µM
  TGI: 0.762 µM
IGROV1 ovarian
  GI50: 0.733 µM
  TGI: 5.67 µM
K-562 leukemia
  GI50: 0.282 µM
  TGI: > 100 µM
KM12 colon
  GI50: 0.356 µM
  TGI: 5.73 µM
LOX IMVI melanoma
  GI50: 0.291 µM
  TGI: 1.28 µM
M14 melanoma
  GI50: 0.358 µM
  TGI: 5.32 µM
MALME-3M melanoma
  GI50: 0.153 µM
  TGI: 22.2 µM
MCF7 breast
  GI50: 0.202 µM
  TGI: > 20.3 µM
MDA-MB-231 breast
  GI50: 0.485 µM
  TGI: 5.43 µM
MDA-MB-435
  GI50: 0.24 µM
  TGI: 0.855 µM
MOLT-4 leukemia
  GI50: 0.384 µM
  TGI: > 88.8 µM
NCI-H226 lung
  GI50: 0.608 µM
  TGI: 3.45 µM
NCI-H23 lung
  GI50: 0.452 µM
  TGI: 7.72 µM
NCI-H460 lung
  GI50: 0.312 µM
  TGI: > 100 µM
NCI-H522 lung
  GI50: 0.0802 µM
  TGI: 0.52 µM
NCI/ADR-RES ovarian
  GI50: 0.239 µM
  TGI: 4.03 µM
OVCAR-3 ovarian
  GI50: 0.363 µM
  TGI: 1.83 µM
OVCAR-4 ovarian
  GI50: 0.345 µM
  TGI: > 54.2 µM
OVCAR-5 ovarian
  GI50: 0.13 µM
  TGI: 1.4 µM
OVCAR-8 ovarian
  GI50: 0.104 µM
  TGI: 5.54 µM
PC-3 prostate
  GI50: 0.327 µM
  TGI: 16.2 µM
RPMI-8226 leukemia
  GI50: 0.176 µM
  TGI: > 100 µM
RXF 393 renal
  GI50: 0.178 µM
  TGI: 0.789 µM
SF-268 CNS
  GI50: 0.552 µM
  TGI: 7.55 µM
SF-295 CNS
  GI50: 0.26 µM
  TGI: 1.23 µM
SF-539 CNS
  GI50: 0.335 µM
  TGI: 18.5 µM
SK-MEL-2 melanoma
  GI50: 0.153 µM
  TGI: 0.506 µM
SK-MEL-28 melanoma
  GI50: 0.254 µM
  TGI: 1.58 µM
SK-MEL-5 melanoma
  GI50: 0.146 µM
  TGI: 0.339 µM
SK-OV-3 ovarian
  GI50: 0.241 µM
  TGI: 0.88 µM
SN12C renal
  GI50: 0.489 µM
  TGI: 30.1 µM
SNB-19 CNS
  GI50: 0.593 µM
  TGI: 12.2 µM
SNB-75 CNS
  GI50: 0.227 µM
  TGI: 25.4 µM
SR leukemia
  GI50: 0.605 µM
  TGI: > 100 µM
SW-620 colon
  GI50: 0.228 µM
  TGI: 3.32 µM
T-47D breast
  GI50: 0.136 µM
  TGI: > 47.4 µM
TK-10 renal
  GI50: 0.116 µM
  TGI: 0.598 µM
U251 CNS
  GI50: 0.28 µM
  TGI: 1.43 µM
UACC-257 melanoma
  GI50: 0.0759 µM
  TGI: 0.58 µM
UACC-62 melanoma
  GI50: 0.188 µM
  TGI: 0.743 µM
UO-31 renal
  GI50: 0.25 µM
  TGI: 4.92 µM

From PubChem BioAssay (NCI)
